Experimental findings from PubChem BioAssay (NCI) are described below.

Several values for one entry are separate records, joined by “and”; a condition that tells them apart may be missing. Equal values may be shown once.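 Assay format: 96-well plates, 48-hour exposure. GI50: concentration for 50% inhibition of growth. At the TGI there is no net growth.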 Some results are limits rather than exact numbers.

What all share (test): NCI tumour cell line growth inhibition, 48 h
Test [1] deals with KM12 colon.
In test [2] the test system is UO-31 renal.
Test [3] concerns MOLT-4 leukemia.
For test [4], the system named is K-562 leukemia.
In test [5] the test system is CCRF-CEM leukemia.
Test [6] deals with NCI-H226 lung.
For test [7], the system named is SNB-75 CNS.
The subject of test [8] is OVCAR-8 ovarian.
In test [9] the test system is NCI-H460 lung.

For the compound `CC1=C(C(=O)Nc2ccc([N+](=O)[O-])cc2)C(c2ccccc2O)C(C(=O)Nc2ccc([N+](=O)[O-])cc2)=C(C)N1`, the TGI came out at 55 µM in test [1]; 67.8 µM in test [2]; 52.8 µM in test [3]; 74.2 µM in test [4]; 61.7 µM in [5]; 46.9 µM in test [6]. In addition, the figures for the TGI in test [7], in test [8] and in [9] were 89 µM, greater than 100 µM and 56.4 µM, respectively.

For the compound `CCCCN=C(NC#N)N(Cc1ccccc1)Cc1ccccc1`, the TGI is greater than 100 µM in test [1]; 58 µM in test [2]; 48.5 µM in test [3]; 88.1 µM in test [4]; 49.2 µM in test [5]; greater than 100 µM in [6]. Besides, the TGI in [7], in [8] and in test [9] was greater than 100 µM throughout.

With `CN(C(=O)C12C3(C(=O)C(C)(C)C)C4C5(C#N)C3C1(C(=O)C(C)(C)C)C5C42C(=O)C(C)(C)C)C(C)(C)C` (stereo not given), the TGI in test [1], in [2], in test [3], in test [4], in [5] and in test [6] was greater than 50 µM throughout. Moreover, the TGI in [7], in test [8] and in test [9] was greater than 50 µM throughout.

Turning to `O=c1cc(-c2ccccc2)[nH]c2c(Cl)cccc12`, the TGI in test [2] is greater than 100 µM; in [3] it was greater than 100 µM; in [4], greater than 100 µM; in test [5], greater than 100 µM; in test [6], 81 µM; in [7], 54.8 µM. The TGI in test [8] and in test [9] was greater than 100 µM throughout.

`O=C(O)C(C(=O)C(=O)C(C(=O)O)c1ccc(Cl)cc1)c1ccc(Cl)cc1` (stereo not given): the TGI in [1] came to 13.4 µM; in test [2], 15.4 µM; in test [3], 5 µM; in test [4], 10.7 µM; in [5], 10 µM; in test [6], 16.4 µM. For the same compound, the TGI in test [7] came out at 8.89 µM; in [8] it was 6.23 µM; in [9], 13.7 µM.

Take `O=[P+](O)c1cc2ccccc2c2ccccc12`: the TGI in [1], in [3], in test [4], in test [5], in [6] and in [7] was greater than 100 µM each time. For the same compound, the TGI in [8] and in [9] was greater than 100 µM throughout.

Take `COC(=O)[C@@]1(O)CC(C)C=C1C=O` (stereo not given in full): the TGI in [1], in test [2], in test [3], in [4], in [5] and in test [6] was greater than 100 µM throughout. The TGI in [7] is greater than 100 µM; in test [8], greater than 100 µM; in test [9] it was 42.1 µM.

`CCCCCCCCC(O)C#CC(N)=O` (stereo not given): the TGI in test [2] worked out at 21.6 µM; in [3] it was 66.1 µM; in test [4], 75.4 µM; in test [5], 72.5 µM; in [6] it was 25.6 µM; in test [7], 17.5 µM. Also, the TGI turned out to be 21.4 µM in test [8] and 22 µM in test [9].

On to `COc1ccc(OC)c(NCC#N)c1`, for which the TGI in test [1], in test [2], in [3], in test [4], in test [5] and in test [6] was greater than 100 µM in each case. In addition, the TGI in test [7], in test [8] and in test [9] was greater than 100 µM in each case.

Regarding `O=C1[C@H]2ON(c3ccccc3)C(c3ccccc3F)[C@H]2C(=O)N1c1ccc(Cc2ccc(N3C(=O)[C@@H]4ON(c5ccccc5)C(c5ccccc5F)[C@@H]4C3=O)cc2)cc1` (stereo not given in full), the TGI in test [1], in test [2], in test [3], in [4], in [5] and in test [6] was greater than 100 µM throughout. Further, the TGI in test [7] and in [9] was greater than 100 µM each time.

In the case of `CC(=O)OC(C)(C)/C=C/C(=O)[C@](C)(O)[C@H]1[C@H](O)C[C@@]2(C)[C@@H]3CC=C4[C@@H](C[C@H](O)C(=O)C4(C)C)[C@]3(CO)C(=O)C[C@]12C`, the GI50 was 0.703 µM in [1]; 0.251 µM in test [2]; 164 nM in [4]; 0.0959 µM in [5]; 0.29 µM in [6]; 0.0529 µM in test [7]. Further, the GI50 in test [9] was 0.407 µM. In addition, the TGI in [1] was 32.7 µM; in test [2] it was 0.883 µM and 0.565 µM; in [3], 58.3 µM; in [4], 29.5 µM; in test [5], 0.96 µM and 2.62 µM; in [6], 0.776 µM and 0.293 µM. The TGI in test [7] is 0.375 µM and 0.211 µM; in [8] it was 23.8 µM; in [9], 17.9 µM.

With `CCOC(=O)[C@H]1CSC[C@@H](C(=O)OC)N1`, the TGI in test [1], in test [2], in test [3], in test [4], in test [5] and in [7] was greater than 100 µM throughout. Also, the TGI in test [8] and in test [9] was greater than 100 µM each time.

For the compound `CC(C)N1CCC2(CC1)NNc1ncccc1-n1cccc12`, the TGI in test [1], in test [2], in [3], in test [4], in test [5] and in [6] was greater than 100 µM throughout. The TGI in test [7], in test [8] and in test [9] was greater than 100 µM in each case.

On to `O=c1cc(-c2ccccc2)nc(/C=C(\O)c2ccncc2)n1-c1ccccc1`, for which the TGI in test [1], in test [2], in [4], in [5], in [6] and in test [7] was greater than 100 µM in each case. Moreover, the TGI in test [8] and in test [9] was greater than 100 µM throughout.

For `COC1=C2C[C@H](O)C(C)C[C@@]2(OC)OC1=O` (stereo not given in full), the TGI in [1], in [2], in [3], in [4], in [5] and in test [7] was greater than 100 µM throughout. The same compound gave a TGI in test [9] greater than 100 µM.

Regarding `O=C1C2CC=CCC2C(=O)C12CCc1ccccc12` (stereo not given), the TGI in [2], in test [4], in test [5], in test [7], in test [8] and in test [9] was greater than 100 µM throughout.

Take `NC(CC(=O)Nc1ccc(Cl)cc1)=Nc1ccccc1`: the TGI in test [1], in test [2], in test [3], in test [4], in test [6] and in [7] was greater than 100 µM throughout. Besides, the TGI in test [8] and in test [9] was greater than 100 µM throughout.

As to `CCOc1ccccc1N1C(=O)C(=O)C(c2nc3ccccc3o2)/C(=N\N)C1=O` (stereo not given), the TGI in [1] was greater than 100 µM; in test [2], 91 µM; in [4], greater than 100 µM; in test [5], greater than 100 µM; in [6], greater than 100 µM; in [7], greater than 100 µM. In test [8], this compound registered a TGI greater than 100 µM.

Turning to `CCO/C=C1\N=C(C(Cl)c2ccccc2)OC1=O` (stereo not given), the TGI in [1], in test [2], in test [3], in test [4], in test [5] and in [6] was greater than 100 µM in each case. In addition, the TGI in test [7], in test [8] and in test [9] was greater than 100 µM each time.

For `O=c1nc(NC(c2ccccc2)(c2ccccc2)c2ccccc2)ccn1CCO`, the TGI in test [1], in test [2], in test [3], in test [4], in test [6] and in test [7] was greater than 100 µM in each case. Moreover, the TGI in test [8] and in test [9] was greater than 100 µM each time.

With `NC(=O)C(=Cc1ccc(CP(=O)(O)O)cc1)C(N)=O`, the TGI in test [1], in [2], in [3], in test [4], in [7] and in test [8] was greater than 100 µM in each case. For the same compound, the TGI in test [9] was greater than 100 µM.

For `C[C@]1(C(=O)O)N[C@H](C(=O)O)CS1`, the GI50 was greater than 1000 µM in [1]; greater than 1000 µM in test [2]; 2340 nM in [4]; greater than 1000 µM in test [5]; greater than 1000 µM in [6]; greater than 1000 µM in [7]. Moreover, the GI50 in test [8] is greater than 1 mM; in test [9] it was greater than 1000 µM. The TGI in [1], in test [2], in [4], in test [5], in test [6] and in test [7] was greater than 1000 µM each time. The TGI in test [8] and in test [9] was greater than 1000 µM each time.
